Experimental data from ChEMBL document CHEMBL1137190, “Synthesis and KCNQ2 opener activity of N-(1-benzo[1,3]dioxol-5-yl-ethyl, N-[1-(2,3-dihydro-benzofuran-5-yl)-ethyl, and N-[1-(2,3-dihydro-1H-indol-5-yl)-ethyl acrylamides” (Bioorg Med Chem Lett, 2004).

tested on: HEK293; test: Effective concentration against whole-cell patch clamp from […] HEK293 cells; type: functional, cell-based, Homo sapiens; conditions: Homo sapiens, HEK293

Q: Which EC50 does the source give for C[C@H](NC(=O)/C=C/c1ccccc1F)c1ccc2c(c1)N(CC1CC1)CCO2 here?
A: The EC50 was 60 nM.

Q: Which EC50 does the source give for C[C@H](NC(=O)/C=C/c1c(F)cccc1F)c1ccc2c(c1)CCO2 here?
A: Its EC50 is 330 nM.

Q: For C[C@H](NC(=O)/C=C/c1ccccc1)c1cccc(N2CCOCC2)c1, which EC50 is on record?
A: The EC50 was 3200 nM.

Q: Which EC50 does the source give for C[C@H](NC(=O)/C=C/c1ccccc1F)c1ccc2c(c1)CCN2 here?
A: The EC50 was 430 nM.

Q: For CCOC(=O)Nc1ccc(NCc2ccc(F)cc2)cc1N [EZOGABINE], which EC50 is on record?
A: Its EC50 is 1300 nM.

same assay, conditions: hek293

Q: Which EC50 does the source give for C[C@H](NC(=O)/C=C/c1ccccc1Cl)c1ccc2c(c1)OCO2 here?
A: The EC50 was 20 nM.

Q: How did the EC50 turn out when C[C@H](NC(=O)/C=C/c1ccccc1Cl)c1ccc2c(c1)OCO2 (racemic) was run?
A: Its EC50 is 70 nM.
